According to patent publication US10464946B2, “Crystalline forms of thienopyrimidine compound” (HANMI PHARM. CO., LTD., priority 2015, dated 2019):

Assays:
[1] = Dynamic vapor sorption (DVS) hygroscopicity; assay type: physicochemical; conditions: relative humidity of 10% to 90%; for stability from the hygroscopic aspect: expected from the DVS result
Protocol: Dynamic vapor sorption (DVS) analysis was performed in a DVS advantage (Surface measurement system, United Kingdom) analyzer at 25° C. with a relative humidity of 0% to 90%. A sample in an amount of 10 mg was placed into a wire-mesh vapor sorption balance pan and then attached to a DVS advantage dynamic vapor sorption balance via surface measurement systems. Until a stable weight was achieved (99.5% completion of steps), the sample was applied to a ramping profile with a relative humidity of 10% to 90% with a 10% increase of the sample while maintaining the sample in each step. Upon completion of the sorption cycle, the sample was dried using the same process while maintaining a relative humidity of […]. The changes in the sample weight during the adsorption/desorption cycle (repeated 3 times) were recorded and the hygroscopicity of the sample was measured.

[2] = Storage stability under long-term and accelerated conditions; assay type: physicochemical; conditions: for stability under a long-term storage condition: temperature of 25° C. and relative humidity of 60%; for stability under an accelerated condition: temperature of 40° C. and relative humidity of 75%
Protocol: High performance liquid chromatography (HPLC) analysis was performed for the purposes of analyzing purity and contents such as a stability test, etc., using an Agilent 1100/1200 series HPLC Systems (Agilent, USA) analyzer, and the conditions used for HPLC were as follows.

Row | stability from the hygroscopic aspect [1] | water content / hygroscopic level in the DVS ([1]; 25° C.) | stability under a long-term storage condition [2] | stability under an accelerated condition [2] | Compound
1 | unstable |  |  |  | C=CC(=O)Nc1cccc(Oc2nc(Nc3ccc(N4CCN(C)CC4)cc3)nc3ccsc23)c1 [Comparative Example 1, N-(3-(2-(4-(4-methylpiperazin-1-yl)phenylamino)thieno[3,2-d]pyrimidin-4-yloxy)phenyl)acrylamide, reference compound]
2 | stable | about 1.5% |  |  | C=CC(=O)Nc1cccc(Oc2nc(Nc3ccc(N4CCN(C)CC4)cc3)nc3ccsc23)c1 [Example 1, N-(3-(2-(4-(4-methylpiperazin-1-yl)phenylamino)thieno[3,2-d]pyrimidin-4-yloxy)phenyl)acrylamide]
3 | very stable |  | very stable | very stable | C=CC(=O)Nc1cccc(Oc2nc(Nc3ccc(N4CCN(C)CC4)cc3)nc3ccsc23)c1 [Example 3, N-(3-(2-(4-(4-methylpiperazin-1-yl)phenylamino)thieno[3,2-d]pyrimidin-4-yloxy)phenyl)acrylamide]
4 | very stable |  | very stable | very stable | C=CC(=O)Nc1cccc(Oc2nc(Nc3ccc(N4CCN(C)CC4)cc3)nc3ccsc23)c1 [Example 4, N-(3-(2-(4-(4-methylpiperazin-1-yl)phenylamino)thieno[3,2-d]pyrimidin-4-yloxy)phenyl)acrylamide]
